The test system of assay [1] is Aβ42. The assay is described as follows: HEK assay: Aβ42 secreted to cell medium, Meso Scale Discovery electrochemiluminescence. Format: cell-based. The settings on record: Homo sapiens, HEK293; HEK cell line stably expressing APPswe; 4-6 hours incubation with test compound; read-out: pIC50 Aβ42 HEK assay (converted). The protocol: Compounds were diluted in 100% DMSO and stored at […] prior to use. Human Embryonic Kidney (HEK) cell line stably expressing APP with the Swedish mutation (APPswe) was cultured using Dulbecco's Modified Eagles medium (DMEM) supplied with […] glucose, Na-pyruvate and GlutaMAX, 10% Foetal bovine serum, 100 U/mL penicillin-streptomycin (PEST), 1× non-essential amino acids (NEAA), […] Hepes, 100 μg/mL Zeocine. Cells at about 80% confluence were washed with PBS, detached from culture flasks using 1× Trypsin/EDTA diluted in PBS, re-suspended in cell media and plated in 384-well poly-d-lysine coated cell culture plates at about 10000-15000 cells/well, in 25 μL cell media. Optionally, cryo-preserved cells (frozen and stored at −140° C. in 90% cell media and 10% DMSO) were thawed, washed and plated as above. Next the cells were incubated for 15-24 h at 37° C. and 5% CO2, after which cell medium was changed. Fresh medium containing test compound diluted ×200 from prepared compound plate was added to the cells before further incubation for 4-6 hours at 37° C. and 5% CO2. After incubation with test compound the amount of Aβ peptides, including Aβ42, Aβ40, Aβ39, Aβ38 and Aβ37, secreted to cell medium was analyzed using the electrochemiluminescence assay technology from Meso Scale Discovery Technology, in combination with specific antibodies raised against the different Aβ peptides. Potential cytotoxic effects of the compounds were assayed by measuring the ATP content (ViaLight) from cell lysate.

In assay [2] the test system is Aβ42. Kind of assay: PCN assay: Aβ42 secreted by primary cortical neuronal cells, ELISA. It is filed as cell-based. The conditions noted are these: primary cortical neuronal cells from 16-day mouse embryos; 16-20 hours incubation with test compound; read-out: pIC50 Aβ42 PCN assay (converted). The procedure:
Compounds were diluted in 100% DMSO and stored at […] prior to use. Primary cortical neuronal cells (PCN) were isolated from 16-day mouse embryos and cultured in Ham's F12 media containing 10% Foetal bovine serum, 10 mM Hepes, 2 mM L-glutamine and 100 U/mL Penicillin-Streptomycin. 150000-250000 cells/well, in 200 μL cell media were seeded onto 96-well poly-D-Lysine coated plates. After incubation at 37° C., 5% CO2 for five days, the media was exchanged for fresh medium containing test compound diluted ×100, before further incubation for 16-20 hours at 37° C. and 5% CO2. After incubation with test compound the amount of […] secreted to cell medium was analyzed using the solid phase sandwich Enzyme-Linked-Immuno-Sorbent Assay (ELISA)-kit from Invitrogen for detection of mouse βAmyloid 1-42. Potential cytotoxic effects of the compounds were assayed by measuring the ATP content (Via Light) from cell lysate.
Background: ELISA stands for enzyme-linked immunosorbent assay.

Structures are written as SMILES.

Turning to `COc1cc(Nc2nc(COCC3CC3)cc(N3CCC3)n2)ccc1-n1cnc(C)c1` [Example 1, 4-(Azetidin-1-yl)-6-((cyclopropylmethoxy)methyl)-N-(3-methoxy-4-(4-methyl-1H-imidazol-1-yl)phenyl)pyrimidin-2-amine], the IC50 is 20 nM in assay [1] and 50.1 nM in assay [2].

As to `CNc1cc(COCC(F)(F)F)nc(Nc2ccc(-n3cnc(C)c3)cc2)n1` [Example 2, N^4-Methyl-N^2-(4-(4-methyl-1H-imidazol-1-yl)phenyl)-6-((2,2,2-trifluoroethoxy)methyl)-pyrimidine-2,4-diamine], the IC50 in assay [1] is 31.6 nM; in assay [2] it was 63.1 nM.

Consider `COc1cc(Nc2nc(CC#N)cc(COCC(F)(F)F)n2)ccc1-n1cnc(C)c1` [Example 3, 2-[2-[3-Methoxy-4-(4-methylimidazol-1-yl)anilino]-6-(2,2,2-trifluoroethoxymethyl)pyrimidin-4-yl]acetonitrile], for which the IC50 in assay [1] was 25.1 nM; in assay [2], 39.8 nM.

Regarding `CNc1nc(Nc2ccc(-n3cnc(C)c3)c(OC)c2)nc(COCC(F)(F)F)c1C` [Example 4, N^2-(3-Methoxy-4-(4-methyl-1H-imidazol-1-yl)phenyl)-N^4,5-dimethyl-6-((2,2,2-trifluoroethoxy)methyl)pyrimidine-2,4-diamine], the IC50 is 25.1 nM in assay [1] and 10 nM in assay [2].

For the compound `COc1cc(Nc2nc(COCC(F)(F)F)c(C)c(C(C)(C)O)n2)ccc1-n1cnc(C)c1` [Example 5, 2-(2-(3-Methoxy-4-(4-methyl-1H-imidazol-1-yl)phenylamino)-5-methyl-6-((2,2,2-trifluoroethoxy)methyl)pyrimidin-4-yl)propan-2-ol], the IC50 in assay [1] and in assay [2] was 20 nM in each case.

As for `COc1cc(Nc2nc(COCC(F)(F)F)c(C)c(C(C)O)n2)ccc1-n1cnc(C)c1` (stereo not shown) [Example 6, 1-(2-(3-Methoxy-4-(4-methyl-1H-imidazol-1-yl)phenylamino)-5-methyl-6-((2,2,2-trifluoroethoxy)methyl)pyrimidin-4-yl)ethanol], the IC50 in assay [1] and in assay [2] was 31.6 nM each time.

For the compound `COc1cc(Nc2nc(C(C)O)cc(C(C)OCC(F)(F)F)n2)ccc1-n1cnc(C)c1` (stereo not shown) [Example 7, 1-(2-(3-Methoxy-4-(4-methyl-1H-imidazol-1-yl)phenylamino)-6-(1-(2,2,2-trifluoroethoxy)-ethyl)pyrimidin-4-yl)ethanol], the IC50 in assay [1] and in assay [2] was 31.6 nM each time.

In the case of `COc1cc(Nc2nc(COCC(F)(F)F)cc(NC(C)C)n2)ccc1-n1cnc(C)c1` [Example 8, N^4-Isopropyl-N^2-(3-methoxy-4-(4-methyl-1H-imidazol-1-yl)phenyl)-6-((2,2,2-trifluoroethoxy)methyl)pyrimidine-2,4-diamine], the values for the IC50 in assay [1] and in assay [2] were 31.6 nM and 20 nM, respectively.

Take `CNc1cc(COCC(F)(F)F)nc(Nc2ccc(-n3cnc(C)c3)c(OC)c2)n1` [Example 9, N^2-(3-Methoxy-4-(4-methyl-1H-imidazol-1-yl)phenyl)-N4-methyl-6-((2,2,2-trifluoroethoxy)methyl)pyrimidine-2,4-diamine]: the results for the IC50 in assay [1] and in assay [2] were 25.1 nM and 31.6 nM, respectively.

In the case of `COc1cc(Nc2nc(CO)cc(COCC(F)(F)F)n2)ccc1-n1cnc(C)c1` [Example 10, (2-(3-Methoxy-4-(4-methyl-1H-imidazol-1-yl)phenylamino)-6-((2,2,2-trifluoroethoxy)methyl)pyrimidin-4-yl)methanol], the IC50 in assay [1] was 63.1 nM; in assay [2], 31.6 nM.

Consider `COc1cc(Nc2nc(C(C)OCC(F)(F)F)cc(C(C)(C)O)n2)ccc1-n1cnc(C)c1` (stereo not shown) [Example 11, 2-(2-(3-Methoxy-4-(4-methyl-1H-imidazol-1-yl)phenylamino)-6-(1-(2,2,2-trifluoroethoxy)ethyl)pyrimidin-4-yl)propan-2-ol], for which the IC50 was 25.1 nM in assay [1] and 50.1 nM in assay [2].

As to `COc1cc(Nc2nc(COCC(F)(F)F)cc(C(O)C(F)(F)F)n2)ccc1-n1cnc(C)c1` (stereo not shown) [Example 12, 2,2,2-Trifluoro-1-(2-(3-methoxy-4-(4-methyl-1H-imidazol-1-yl)phenylamino)-6-((2,2,2-trifluoroethoxy)methyl)pyrimidin-4-yl)ethanol], the IC50 in assay [1] is 79.4 nM; in assay [2] it was 39.8 nM.

For `COc1cc(Nc2nc(COCC(F)(F)F)cc(C(O)CC3CC3)n2)ccc1-n1cnc(C)c1` (stereo not shown) [Example 13, 2-Cyclopropyl-1-(2-(3-methoxy-4-(4-methyl-1H-imidazol-1-yl)phenylamino)-6-((2,2,2-trifluoroethoxy)methyl)pyrimidin-4-yl)ethanol], the results for the IC50 in assay [1] and in assay [2] were 20 nM and 50.1 nM, respectively.

Regarding `COc1cc(Nc2nc(COCC(F)(F)F)cc(C(O)C(C)C)n2)ccc1-n1cnc(C)c1` (stereo not shown) [Example 14, 1-(2-(3-Methoxy-4-(4-methyl-1H-imidazol-1-yl)phenylamino)-6-((2,2,2-trifluoroethoxy)methyl)pyrimidin-4-yl)-2-methylpropan-1-ol], in assay [2], the IC50 is 39.8 nM.

As for `COc1cc(Nc2nc(COCC(F)(F)F)cc(C(C)(C)O)n2)ccc1-n1cnc(C)c1` [Example 15, 2-(2-(3-Methoxy-4-(4-methyl-1H-imidazol-1-yl)phenylamino)-6-((2,2,2-trifluoroethoxy)-methyl)pyrimidin-4-yl)propan-2-ol], the IC50 in assay [1] is 31.6 nM; in assay [2] it was 50.1 nM.

With `COc1cc(Nc2nc(COCC3CC3)cc(COCC(F)(F)F)n2)ccc1-n1cnc(C)c1` [Example 16, 4-((Cyclopropylmethoxy)methyl)-N-(3-methoxy-4-(4-methyl-1H-imidazol-1-yl)phenyl)-6-((2,2,2-trifluoroethoxy)methyl)pyrimidin-2-amine], the IC50 was 50.1 nM in assay [1] and 79.4 nM in assay [2].

On to `COc1cc(Nc2nc(COCC3CC(F)(F)C3)cc(C(C)(C)O)n2)ccc1-n1cnc(C)c1` [Example 17, 2-(6-(((3,3-Difluorocyclobutyl)methoxy)methyl)-2-(3-methoxy-4-(4-methyl-1H-imidazol-1-yl)phenylamino)pyrimidin-4-yl)propan-2-ol], for which the IC50 in assay [1] and in assay [2] was 200 nM each time.

Turning to `COc1cc(Nc2nc(COCCC(F)(F)F)cc(C(C)(C)O)n2)ccc1-n1cnc(C)c1` [Example 18, 2-(2-(3-Methoxy-4-(4-methyl-1H-imidazol-1-yl)phenylamino)-6-((3,3,3-trifluoropropoxy)-methyl)pyrimidin-4-yl)propan-2-ol], the IC50 was 63.1 nM in assay [1] and 100 nM in assay [2].

Take `COc1cc(Nc2nc(COCC3CC(F)(F)C3)cc(C(C)(C)O)n2)ccc1-c1cnnc(C)c1` [Example 19, 2-(6-(((3,3-Difluorocyclobutyl)methoxy)methyl)-2-(3-methoxy-4-(6-methylpyridazin-4-yl)phenylamino)pyrimidin-4-yl)propan-2-ol]: in assay [1], the IC50 was 200 nM.

As to `COc1cc(Nc2nc(COCC(F)(F)F)cc(CN(C)C)n2)ccc1-n1cnc(C)c1` [Example 41, 4-((Dimethylamino)methyl)-N-(3-methoxy-4-(4-methyl-1H-imidazol-1-yl)phenyl)-6-((2,2,2-trifluoroethoxy)methyl)pyrimidin-2-amine], the IC50 in assay [1] was 158 nM.
